Results reported in patent US20240101576A1, “HETEROCYCLIC INHIBITORS OF EGFR AND/OR HER2, FOR USE IN THE TREATMENT OF CANCER” (Scorpion Therapeutics, Inc., priority 2020, published 2024).

Columns and labels:
Format in all cases: cell-based
[1] = molecular target: T1, EGFR exon 20 ASV Ins V769_D770 (Ba/F3 cells) (Homo sapiens, UniProt P00533, INS769ASV); assay: Inhibitor activity on EGFR-dependent cell growth (CellTiter-Glo, 72 h), Ba/F3 EGFR exon 20 ASV Ins; conditions: read-out: BaF3 ASV IC50
T1 construct: expressed in transfected cells; host or cells: Ba/F3 (murine pro-B cells), retroviral transduction, puromycin selection, IL3-independent pool
T1 sequence (P00533 with tags, fused parts or gaps INS769ASV): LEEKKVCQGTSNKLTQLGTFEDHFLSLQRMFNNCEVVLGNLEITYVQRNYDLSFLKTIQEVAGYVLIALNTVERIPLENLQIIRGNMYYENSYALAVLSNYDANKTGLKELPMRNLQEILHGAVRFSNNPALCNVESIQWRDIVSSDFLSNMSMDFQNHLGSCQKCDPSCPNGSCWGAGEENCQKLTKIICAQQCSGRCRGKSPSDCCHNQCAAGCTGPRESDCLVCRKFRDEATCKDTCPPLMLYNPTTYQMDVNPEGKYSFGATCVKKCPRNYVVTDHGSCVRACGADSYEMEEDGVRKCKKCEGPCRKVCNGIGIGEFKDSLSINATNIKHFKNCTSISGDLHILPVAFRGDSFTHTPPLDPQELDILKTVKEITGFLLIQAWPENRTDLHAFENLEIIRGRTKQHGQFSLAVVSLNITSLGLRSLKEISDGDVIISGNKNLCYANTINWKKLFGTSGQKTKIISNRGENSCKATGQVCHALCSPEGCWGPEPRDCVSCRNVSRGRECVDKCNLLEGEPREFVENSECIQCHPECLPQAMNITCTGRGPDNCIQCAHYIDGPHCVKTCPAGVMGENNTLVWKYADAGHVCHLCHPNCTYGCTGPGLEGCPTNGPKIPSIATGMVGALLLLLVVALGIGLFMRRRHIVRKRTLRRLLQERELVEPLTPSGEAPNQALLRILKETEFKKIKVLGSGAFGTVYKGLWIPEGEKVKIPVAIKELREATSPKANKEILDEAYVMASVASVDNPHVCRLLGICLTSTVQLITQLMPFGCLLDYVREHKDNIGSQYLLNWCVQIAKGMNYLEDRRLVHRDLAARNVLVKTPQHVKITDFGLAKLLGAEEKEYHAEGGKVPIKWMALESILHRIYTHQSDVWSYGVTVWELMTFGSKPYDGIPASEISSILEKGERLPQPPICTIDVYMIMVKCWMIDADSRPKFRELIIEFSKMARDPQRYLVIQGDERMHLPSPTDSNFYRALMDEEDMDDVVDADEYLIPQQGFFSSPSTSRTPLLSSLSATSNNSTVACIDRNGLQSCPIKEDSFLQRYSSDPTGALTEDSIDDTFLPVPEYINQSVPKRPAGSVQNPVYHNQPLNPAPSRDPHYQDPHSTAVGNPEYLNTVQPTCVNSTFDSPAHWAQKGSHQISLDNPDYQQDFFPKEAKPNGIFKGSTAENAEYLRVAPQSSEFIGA
Text: (§1) Example A. Inhibitor Activity on EGFR-Dependent Cell Growth
(§2) Cell lines are generated by transducing Ba/F3 cells with retroviruses containing vectors with EGFR WT, EGFR L858R, EGFR exon 19del, EGFR L858R/C797S, EGFR exon 20 NPG Ins D770_N771, EGFR exon 20 ASV Ins V769_D770, EGFR exon 20 SVD Ins D770_N771, or EGFR exon 20 FQEA Ins A763_V764 genes and a puromycin selection marker. Transduced cells are selected with puromycin for 7 days and are then be transferred into culture media without Interleukin 3 (IL3). EGFR WT cells are maintained with supplemental EGF. Surviving cells are confirmed to express EGFR by Western blot and maintained as a pool. The IC50 date were included in Table 6 and Table 7.
(§3) 1.1 Cells are harvested from flask into cell culture medium and the cell number counted.
(§4) 1.2 Cells are diluted with culture medium to the desired density and 40 μL of cell suspension is added into each well of 384-well cell culture plate and the seeding density is 800 (FQEA, exon 19del), 600 (WT, NPG, L858R/C797S), or 400 (ASV, SVD, L858R) cells/well.
(§5) 2 Compound Preparation and Treatment
(§6) 2.1 Test compounds are dissolved to 10 mM in a DMSO stock solution. 45 μL of stock solution is transferred to a 384 polypropylene plate (pp-plate). Perform 3-fold, 10-point dilution via transferring 15 μL compound into 30 μL DMSO using a TECAN (EVO200) liquid handler.
(§7) 2.2 Spin plates at room temperature at 1,000 RPM for 1 minute.
(§8) 2.3 Transfer 120 nL of diluted compound from compound source plate into the cell plate.
(§9) 2.4 After compound treatment for 72 hours, perform CTG detection for compound treatment plates as described in “Detection” section.
(§10) 3.1 Plates are removed from incubators and equilibrated at room temperature for 15 minutes.
(§11) 3.2 Thaw the CellTiter Glo reagents and allow to equilibrate to room temperature before the experiment.
(§12) 3.3 Add 40 μL of CellTiter-Glo reagent into each well (at 1:1 to culture medium). Then place the plates at room temperature for 30 min followed by reading on EnVision.
(§13) 4.1 Inhibition activity is calculated following the formula below:
(§14) % Inhibition=100×(LumHC−LumSample)/(LumHC−LumLC) • where HC is obtained from cells treated with 0.1% DMSO only; and LC is obtained from culture medium only.
(§15) 4.2 2. Calculate the IC50 by fitting the Curve using Xlfit (v5.3.1.3), equation 201.
(§16) Y=Bottom+(Top−Bottom)/(1+10^((Log IC50−X)*HillSlope))

EGFR WT (Ba/F3 cells) = molecular target: T2, EGFR WT (Ba/F3 cells) (Homo sapiens, UniProt P00533); assay: Inhibitor activity on EGFR-dependent cell growth (CellTiter-Glo, 72 h), Ba/F3 EGFR WT; conditions: read-out: BaF3 WT IC50
T2 construct: expressed in transfected cells; host or cells: Ba/F3 (murine pro-B cells), retroviral transduction, puromycin selection, maintained with EGF
T2 sequence (P00533 25-1210): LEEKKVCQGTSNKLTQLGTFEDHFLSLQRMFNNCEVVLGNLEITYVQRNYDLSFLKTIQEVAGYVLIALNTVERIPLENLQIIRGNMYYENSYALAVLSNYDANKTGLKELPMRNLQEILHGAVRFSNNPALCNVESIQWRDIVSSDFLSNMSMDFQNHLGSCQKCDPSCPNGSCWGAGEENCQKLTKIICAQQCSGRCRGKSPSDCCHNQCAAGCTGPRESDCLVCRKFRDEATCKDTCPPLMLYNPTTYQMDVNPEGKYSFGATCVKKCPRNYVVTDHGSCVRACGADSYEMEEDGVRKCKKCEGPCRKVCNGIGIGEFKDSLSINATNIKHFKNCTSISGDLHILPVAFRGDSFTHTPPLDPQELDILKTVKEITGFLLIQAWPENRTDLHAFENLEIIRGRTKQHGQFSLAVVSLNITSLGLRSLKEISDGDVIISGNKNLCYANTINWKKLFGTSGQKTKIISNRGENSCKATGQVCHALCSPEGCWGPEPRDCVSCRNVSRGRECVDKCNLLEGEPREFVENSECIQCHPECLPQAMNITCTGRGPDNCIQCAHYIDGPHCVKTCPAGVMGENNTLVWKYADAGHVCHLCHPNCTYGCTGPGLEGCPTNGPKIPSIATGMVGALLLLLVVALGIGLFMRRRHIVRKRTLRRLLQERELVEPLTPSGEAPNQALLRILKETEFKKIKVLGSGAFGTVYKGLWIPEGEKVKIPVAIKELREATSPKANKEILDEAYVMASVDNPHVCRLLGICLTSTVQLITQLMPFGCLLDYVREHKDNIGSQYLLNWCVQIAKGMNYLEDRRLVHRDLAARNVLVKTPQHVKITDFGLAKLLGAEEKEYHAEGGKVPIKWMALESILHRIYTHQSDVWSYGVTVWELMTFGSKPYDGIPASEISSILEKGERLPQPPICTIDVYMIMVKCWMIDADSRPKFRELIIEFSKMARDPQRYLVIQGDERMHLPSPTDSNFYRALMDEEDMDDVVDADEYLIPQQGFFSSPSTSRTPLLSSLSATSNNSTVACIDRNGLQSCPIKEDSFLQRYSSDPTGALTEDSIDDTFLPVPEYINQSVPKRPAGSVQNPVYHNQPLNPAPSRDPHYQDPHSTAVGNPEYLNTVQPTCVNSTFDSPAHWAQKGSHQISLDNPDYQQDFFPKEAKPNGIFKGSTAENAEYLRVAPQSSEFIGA
Text: as §1, §2, §3, §4, §5, §6, §7, §8, §9, §10, §11, §12, §13, §14, §15, §16

[2] = molecular target: T3, EGFR exon 20 SVD Ins D770_N771 (Ba/F3 cells) (Homo sapiens, UniProt P00533, INS770SVD); assay: Inhibitor activity on EGFR-dependent cell growth (CellTiter-Glo, 72 h), Ba/F3 EGFR exon 20 SVD Ins; conditions: read-out: BaF3 SVD IC50
T3 construct: expressed in transfected cells; host or cells: Ba/F3 (murine pro-B cells), retroviral transduction, puromycin selection, IL3-independent pool
T3 sequence (P00533 with tags, fused parts or gaps INS770SVD): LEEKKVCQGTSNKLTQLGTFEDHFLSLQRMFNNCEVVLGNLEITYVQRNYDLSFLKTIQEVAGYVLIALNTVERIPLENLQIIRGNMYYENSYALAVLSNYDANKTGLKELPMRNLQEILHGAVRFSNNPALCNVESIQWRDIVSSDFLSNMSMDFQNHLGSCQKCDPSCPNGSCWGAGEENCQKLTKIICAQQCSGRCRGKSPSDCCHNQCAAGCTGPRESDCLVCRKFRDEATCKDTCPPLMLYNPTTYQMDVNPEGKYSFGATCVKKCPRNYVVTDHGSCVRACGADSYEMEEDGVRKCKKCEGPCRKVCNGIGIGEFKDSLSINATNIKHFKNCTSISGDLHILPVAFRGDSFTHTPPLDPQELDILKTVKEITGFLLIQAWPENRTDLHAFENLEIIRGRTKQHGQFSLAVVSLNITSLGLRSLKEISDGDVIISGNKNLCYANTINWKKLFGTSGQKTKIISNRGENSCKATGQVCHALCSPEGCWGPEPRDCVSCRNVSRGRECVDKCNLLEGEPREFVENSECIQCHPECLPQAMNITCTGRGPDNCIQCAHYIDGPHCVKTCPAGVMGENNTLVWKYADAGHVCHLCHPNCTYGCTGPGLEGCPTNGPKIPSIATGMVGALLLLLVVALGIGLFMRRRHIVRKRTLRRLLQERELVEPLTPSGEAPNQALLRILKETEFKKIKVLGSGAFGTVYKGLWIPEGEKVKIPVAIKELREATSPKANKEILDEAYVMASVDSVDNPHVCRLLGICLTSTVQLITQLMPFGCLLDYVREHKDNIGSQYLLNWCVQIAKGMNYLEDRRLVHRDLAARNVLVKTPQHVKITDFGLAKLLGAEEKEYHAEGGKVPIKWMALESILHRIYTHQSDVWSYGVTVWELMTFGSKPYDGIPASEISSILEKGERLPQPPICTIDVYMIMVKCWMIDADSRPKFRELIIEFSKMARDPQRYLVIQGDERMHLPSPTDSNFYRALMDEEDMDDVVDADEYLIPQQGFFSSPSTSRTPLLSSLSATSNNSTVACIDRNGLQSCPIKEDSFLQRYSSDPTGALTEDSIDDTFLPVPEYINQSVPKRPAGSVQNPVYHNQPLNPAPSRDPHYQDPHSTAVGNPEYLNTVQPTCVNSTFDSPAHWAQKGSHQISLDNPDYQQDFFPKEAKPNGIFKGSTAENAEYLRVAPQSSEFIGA
Text: as §1, §2, §3, §4, §5, §6, §7, §8, §9, §10, §11, §12, §13, §14, §15, §16

[3] = molecular target: T4, EGFR exon 20 FQEA Ins A763_V764 (Ba/F3 cells) (Homo sapiens, UniProt P00533, INS763FQEA); assay: Inhibitor activity on EGFR-dependent cell growth (CellTiter-Glo, 72 h), Ba/F3 EGFR exon 20 FQEA Ins; conditions: read-out: BaF3 FQEA IC50
T4 construct: expressed in transfected cells; host or cells: Ba/F3 (murine pro-B cells), retroviral transduction, puromycin selection, IL3-independent pool
T4 sequence (P00533 with tags, fused parts or gaps INS763FQEA): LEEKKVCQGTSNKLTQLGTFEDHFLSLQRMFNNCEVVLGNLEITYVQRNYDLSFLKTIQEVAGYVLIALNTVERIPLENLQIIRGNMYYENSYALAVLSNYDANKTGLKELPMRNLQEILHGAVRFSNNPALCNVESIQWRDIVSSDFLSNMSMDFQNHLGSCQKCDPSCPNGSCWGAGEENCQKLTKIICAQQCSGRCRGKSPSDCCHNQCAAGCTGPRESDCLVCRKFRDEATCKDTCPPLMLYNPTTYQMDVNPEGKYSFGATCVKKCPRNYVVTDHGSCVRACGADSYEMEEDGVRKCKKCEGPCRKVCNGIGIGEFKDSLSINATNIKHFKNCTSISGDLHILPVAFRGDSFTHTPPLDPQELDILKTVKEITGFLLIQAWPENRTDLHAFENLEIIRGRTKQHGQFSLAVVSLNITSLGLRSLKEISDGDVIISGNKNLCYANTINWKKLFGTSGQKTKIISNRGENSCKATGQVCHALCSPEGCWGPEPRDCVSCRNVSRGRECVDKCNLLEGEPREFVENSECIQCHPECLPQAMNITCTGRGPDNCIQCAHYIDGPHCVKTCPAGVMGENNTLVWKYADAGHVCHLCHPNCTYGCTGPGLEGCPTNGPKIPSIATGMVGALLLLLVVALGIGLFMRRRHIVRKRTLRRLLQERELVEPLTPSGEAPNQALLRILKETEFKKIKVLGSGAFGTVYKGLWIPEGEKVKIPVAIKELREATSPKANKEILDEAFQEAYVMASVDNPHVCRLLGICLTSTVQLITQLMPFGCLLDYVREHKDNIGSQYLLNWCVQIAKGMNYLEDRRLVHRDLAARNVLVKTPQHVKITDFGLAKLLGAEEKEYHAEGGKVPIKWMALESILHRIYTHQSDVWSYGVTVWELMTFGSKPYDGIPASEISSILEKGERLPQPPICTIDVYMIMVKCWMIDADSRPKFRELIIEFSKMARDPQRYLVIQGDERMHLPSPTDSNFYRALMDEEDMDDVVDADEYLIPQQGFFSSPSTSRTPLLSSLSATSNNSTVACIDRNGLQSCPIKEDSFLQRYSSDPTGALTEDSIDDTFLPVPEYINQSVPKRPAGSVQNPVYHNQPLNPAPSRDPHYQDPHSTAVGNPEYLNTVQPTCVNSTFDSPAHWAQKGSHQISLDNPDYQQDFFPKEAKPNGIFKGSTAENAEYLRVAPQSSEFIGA
Text: as §1, §2, §3, §4, §5, §6, §7, §8, §9, §10, §11, §12, §13, §14, §15, §16

| SMILES | IC50 [1] | IC50 (EGFR WT (Ba/F3 cells)) | IC50 [2] | IC50 [3] |
| --- | --- | --- | --- | --- |
| COc1c(Cl)cccc1Nc1c(-c2ccncc2F)[nH]c2c1C(=O)NCC2C[C@H]1CO[C@H](CN(C)C)CO1 (single isomer, unassigned) [Compound 565, (7R*)-3-[(3-chloro-2-methoxyphenyl)amino]-7-{[(2S,5R)-5-[(dimethylamino)methyl]-1,4-dioxan-2-yl]methyl}-2-(3-fluoropyridin-4-yl)-1H,5H,6H,7H-pyrrolo[3,2-c]pyridin-4-one] | 100 to 1000 nM | > 1000 nM | – | – |
| COC[C@@H]1CNC(=O)c2c1[nH]c(-c1ccnc3ccc(OC)nc13)c2Nc1cccc(Cl)c1OC (single isomer, unassigned) [Compound 765] | < 100 nM | < 100 nM | < 100 nM | < 100 nM |
| COc1c(Cl)cccc1Nc1c(-c2ccnc3ccc(OC4(C)CC4)nc23)[nH]c2c1C(=O)NC[C@H]2C (single isomer, unassigned) [Compound 774] | < 100 nM | < 100 nM | < 100 nM | < 100 nM |
| COc1c(Cl)cccc1Nc1c(-c2ccnc3ccc(OC4(C)CC4)nc23)[nH]c2c1C(=O)NC[C@@H]2C (single isomer, unassigned) [Compound 775] | < 100 nM | < 100 nM | < 100 nM | < 100 nM |
| COc1c(Cl)cccc1Nc1c(-c2ccncc2F)[nH]c2c1C(=O)NC[C@@]21CCOC1 (single isomer, unassigned) [Compound 781] | 100 to 1000 nM | > 1000 nM | 100 to 1000 nM | 100 to 1000 nM |
| COc1c(Cl)cccc1Nc1c(-c2ccncc2F)[nH]c2c1C(=O)NCC21CCOC1 (single isomer, unassigned) [Compound 782] | 100 to 1000 nM | > 1000 nM | 100 to 1000 nM | 100 to 1000 nM |
| COc1c(Cl)cccc1Nc1c(-c2ccncc2F)[nH]c2c1C(=O)NCC2CC1CCO1 (single isomer, unassigned) [Compound 783] | < 100 nM | > 1000 nM | – | 100 to 1000 nM |
| COc1c(Cl)cccc1Nc1c(-c2ccncc2F)[nH]c2c1C(=O)NCC2CC1CCO1 (single isomer, unassigned) [Compound 784] | 100 to 1000 nM | > 1000 nM | – | 100 to 1000 nM |
| COc1c(Cl)cccc1Nc1c(-c2ccncc2F)[nH]c2c1C(=O)NCC2CC1CCO1 (single isomer, unassigned) [Compound 785] | < 100 nM | 100 to 1000 nM | – | < 100 nM |
| COc1c(Cl)cccc1Nc1c(-c2ccncc2F)[nH]c2c1C(=O)NCC2CC1CCO1 (single isomer, unassigned) [Compound 786] | < 100 nM | 100 to 1000 nM | – | 100 to 1000 nM |
| COCC[C@@H]1CNC(=O)c2c(Nc3cccc(Cl)c3OC)c(-c3ccncn3)n(C)c21 (single isomer, unassigned) [Compound 796] | > 1000 nM | > 1000 nM | > 1000 nM | > 1000 nM |
| COCC[C@H]1CNC(=O)c2c(Nc3cccc(Cl)c3OC)c(-c3ccncn3)n(C)c21 (single isomer, unassigned) [Compound 797] | > 1000 nM | > 1000 nM | > 1000 nM | > 1000 nM |
| CC[C@H]1CNC(=O)c2c1[nH]c(-c1ccnc(N)n1)c2Nc1cccc(Cl)c1OC [189b] | < 100 nM | 100 to 1000 nM | < 100 nM | < 100 nM |
| COc1c(Cl)cccc1Nc1c(-c2ccncc2F)[nH]c2c1C(=O)NCC2 [compound 410] | – | > 1000 nM | – | 100 to 1000 nM |
| COc1c(Cl)cccc1Nc1c(-c2ccncn2)[nH]c2c1C(=O)NCC2 [compound 675, 3-[(3-chloro-2-methoxyphenyl)amino]-2-(pyrimidin-4-yl)-1H,5H,6H,7H-pyrrolo[3,2-c]pyridin-4-one] | – | > 1000 nM | – | 100 to 1000 nM |
